Measured values published in PMC10620772, “Design, synthesis, and biological evaluation of new pyrimidine-5-carbonitrile derivatives as novel anti-cancer, dual EGFR^WT/COX-2 inhibitors with docking studies” (RSC Advances, 2023).

Legend:
Assay type in all cases: cell-based, human
OVCAR-8 = assay: NCI60 antitumor screening
NCI-H226 = assay: NCI60 antitumor screening
LOX IMVI = assay: NCI60 antitumor screening
HOP-62 = assay: NCI60 antitumor screening
SK-OV-3 = assay: NCI60 antitumor screening
CAKI-1 = assay: NCI60 antitumor screening
UACC-257 = assay: NCI60 antitumor screening
SR = assay: NCI60 antitumor screening
MDA-MB-231/ATCC = assay: NCI60 antitumor screening; conditions: Homo sapiens; 10 μM single dose; MDA-MB-231/ATCC (breast cancer); read-out: growth inhibition percent (GI%)
Leukemia subpanel = assay: NCI60 five-dose, subpanel I
Excerpt: (2) The molar concentration of the compound responsible for total growth inhibition, also known as total growth inhibition (TGI).
Regarding subpanel selectivity toward certain cancer type, the method of determining a compound's selectivity index is to divide the full panel MG-MID (μM) value by each single subpanel. Values above six indicate high selectivity against the subpanel; moderate selectivity is denoted by values between three and six. Conversely, compounds are termed nonselective if their selectivity is less than three.[30,37]

MALME-3M = assay: NCI60 antitumor screening
A549/ATCC = assay: NCI60 antitumor screening
K-562 = assay: NCI60 antitumor screening
TK-10 = assay: NCI60 antitumor screening
RPMI-8226 = assay: NCI60 antitumor screening
HOP-92 = assay: NCI60 antitumor screening
U251 = assay: NCI60 antitumor screening
MDA-MB-468 = assay: NCI60 antitumor screening
RXF 393 = assay: NCI60 antitumor screening
SW-620 = assay: NCI60 antitumor screening
MDA-MB-435 = assay: NCI60 antitumor screening
KM12 = assay: NCI60 antitumor screening
MCF7 = assay: NCI60 antitumor screening
SNB-75 = assay: NCI60 antitumor screening
786–0 = assay: NCI60 antitumor screening
NCI-H522 = assay: NCI60 antitumor screening
SNB-19 = assay: NCI60 antitumor screening
DU-145 = assay: NCI60 antitumor screening
[1] = Homo sapiens, MDA-MB-468, five-dose

N#Cc1c(-c2ccc(F)cc2)nc(SCc2ccc(F)cc2)nc1N1CCNCC1 [4f, 2-((4-Fluorobenzyl)thio)-4-(4-fluorophenyl)-6-(piperazin-1-yl) pyrimidine-5-carbonitrile]
GI50 (OVCAR-8; Homo sapiens, OVCAR-8, five-dose): 13.2 µM | CC50 (OVCAR-8; Homo sapiens, OVCAR-8, five-dose, read-out: LC50 (the source's name)): 70.6 µM | inhibition at 10 µM (OVCAR-8; Homo sapiens, 10 μM single dose, OVCAR-8 (ovarian cancer), read-out: growth inhibition percent (GI%)): > 100% | TGI (OVCAR-8; five-dose): 30.50 µM | GI50 (NCI-H226; Homo sapiens, NCI-H226, five-dose): 15.9 µM | CC50 (NCI-H226; Homo sapiens, NCI-H226, five-dose, read-out: LC50 (the source's name)): 80.3 µM | inhibition at 10 µM (NCI-H226; Homo sapiens, 10 μM single dose, NCI-H226 (non-small cell lung cancer), read-out: growth inhibition percent (GI%)): 23.1% | TGI (NCI-H226; five-dose): 35.70 µM | GI50 (LOX IMVI; Homo sapiens, LOX IMVI, five-dose): 2.28 µM | CC50 (LOX IMVI; Homo sapiens, LOX IMVI, five-dose, read-out: LC50 (the source's name)): 22.7 µM | inhibition at 10 µM (LOX IMVI; Homo sapiens, 10 μM single dose, LOX IMVI (melanoma), read-out: growth inhibition percent (GI%)): > 100% | TGI (LOX IMVI; five-dose): 5.69 µM | GI50 (HOP-62; Homo sapiens, HOP-62, five-dose): 17 µM | CC50 (HOP-62; Homo sapiens, HOP-62, five-dose, read-out: LC50 (the source's name)): 65.8 µM | inhibition at 10 µM (HOP-62; Homo sapiens, 10 μM single dose, HOP-62 (non-small cell lung cancer), read-out: growth inhibition percent (GI%)): > 100% | TGI (HOP-62; five-dose): 33.40 µM | GI50 (SK-OV-3; Homo sapiens, SK-OV-3, five-dose): 16 µM | CC50 (SK-OV-3; Homo sapiens, SK-OV-3, five-dose, read-out: LC50 (the source's name)): 55.4 µM | inhibition at 10 µM (SK-OV-3; Homo sapiens, 10 μM single dose, SK-OV-3 (ovarian cancer), read-out: growth inhibition percent (GI%)): 43.3% | TGI (SK-OV-3; five-dose): 29.80 µM | GI50 (CAKI-1; Homo sapiens, CAKI-1, five-dose): 15.3 µM | CC50 (CAKI-1; Homo sapiens, CAKI-1, five-dose, read-out: LC50 (the source's name)): 54.6 µM | inhibition at 10 µM (CAKI-1; Homo sapiens, 10 μM single dose, CAKI-1 (renal cancer), read-out: growth inhibition percent (GI%)): > 100% | TGI (CAKI-1; five-dose): 29.00 µM | GI50 (UACC-257; Homo sapiens, UACC-257, five-dose): 14.8 µM | CC50 (UACC-257; Homo sapiens, UACC-257, five-dose, read-out: LC50 (the source's name)): 55.8 µM | inhibition at 10 µM (UACC-257; Homo sapiens, 10 μM single dose, UACC-257 (melanoma), read-out: growth inhibition percent (GI%)): > 100% | TGI (UACC-257; five-dose): 28.70 µM | GI50 (SR; Homo sapiens, SR, five-dose): 2.18 µM | CC50 (SR; Homo sapiens, SR, five-dose, read-out: LC50 (the source's name)): 17.5 µM | inhibition at 10 µM (SR; Homo sapiens, 10 μM single dose, SR (leukaemia), read-out: growth inhibition percent (GI%)): > 100% | TGI (SR; five-dose): 5.07 µM | inhibition at 10 µM (MDA-MB-231/ATCC): > 100% | GI50 (Leukemia subpanel; Homo sapiens, subpanel I, read-out: MG-MID (GI50)): 7.63 µM | Selectivity index (GI50) (Leukemia subpanel; full panel MG-MID / subpanel I): 1.76 | Selectivity index (TGI) (Leukemia subpanel; full panel MG-MID / subpanel I): 1.21 | MG-MID (TGI) (Leukemia subpanel; subpanel I): 21.84 µM | GI50 (MALME-3M; Homo sapiens, Malme-3M, five-dose): 14.7 µM | CC50 (MALME-3M; Homo sapiens, Malme-3M, five-dose, read-out: LC50 (the source's name)): 54.8 µM | inhibition at 10 µM (MALME-3M; Homo sapiens, 10 μM single dose, MALME-3M (melanoma), read-out: growth inhibition percent (GI%)): > 100% | TGI (MALME-3M; five-dose): 28.40 µM | GI50 (A549/ATCC; Homo sapiens, A549, five-dose): 11.5 µM | LC50 (concentration killing 50% of cells) (A549/ATCC; Homo sapiens, A549, five-dose): 54.2 µM | inhibition at 10 µM (A549/ATCC; Homo sapiens, 10 μM single dose, A549/ATCC (non-small cell lung cancer), read-out: growth inhibition percent (GI%)): > 100% | TGI (A549/ATCC; five-dose): 25.00 µM | GI% (K-562; 10 μM one-dose): 99.28% | GI50 (K-562; Homo sapiens, K562, five-dose): 3.76 µM | CC50 (K-562; Homo sapiens, K562, five-dose, read-out: LC50 (the source's name)): > 100 µM | inhibition at 10 µM (K-562; Homo sapiens, 10 μM single dose, (leukaemia), read-out: growth inhibition percent (GI%)): 99.3% | TGI (K-562; five-dose): 17.80 µM | GI50 (TK-10; Homo sapiens, TK-10, five-dose): 15 µM | LC50 (TK-10; Homo sapiens, TK-10, five-dose): 58.8 µM | inhibition at 10 µM (TK-10; Homo sapiens, 10 μM single dose, TK-10 (renal cancer), read-out: growth inhibition percent (GI%)): > 100% | TGI (TK-10; five-dose): 29.70 µM | GI50 (RPMI-8226; Homo sapiens, RPMI-8226, five-dose): 6.75 µM | CC50 (RPMI-8226; Homo sapiens, RPMI-8226, five-dose, read-out: LC50 (the source's name)): 74.4 µM | inhibition at 10 µM (RPMI-8226; Homo sapiens, 10 μM single dose, RPMI-8226 (leukaemia), read-out: growth inhibition percent (GI%)): > 100% | TGI (RPMI-8226; five-dose): 24.60 µM | GI50 (HOP-92; Homo sapiens, HOP-92, five-dose): 7.64 µM | CC50 (HOP-92; Homo sapiens, HOP-92, five-dose, read-out: LC50 (the source's name)): 53.4 µM | inhibition at 10 µM (HOP-92; Homo sapiens, 10 μM single dose, HOP-92 (non-small cell lung cancer), read-out: growth inhibition percent (GI%)): > 100% | TGI (HOP-92; five-dose): 22.10 µM | inhibition at 10 µM (U251; Homo sapiens, U-251, 10 μM single dose, U251 (CNS cancer), read-out: growth inhibition percent (GI%)): > 100% | GI50 (U251; Homo sapiens, U-251, five-dose): 10.3 µM | CC50 (U251; Homo sapiens, U-251, five-dose, read-out: LC50 (the source's name)): 59.1 µM | TGI (U251; five-dose): 24.70 µM | GI50 (MDA-MB-468; [1]): 12.4 µM | LC50 (MDA-MB-468; [1]): 55.3 µM | inhibition at 10 µM (MDA-MB-468; Homo sapiens, 10 μM single dose, MDA-MB-468 (breast cancer), read-out: growth inhibition percent (GI%)): > 100% | TGI (MDA-MB-468; five-dose): 26.20 µM | CC50 (RXF 393; Homo sapiens, RXF 393, five-dose, read-out: LC50 (the source's name)): 51.5 µM | inhibition at 10 µM (RXF 393; Homo sapiens, 10 μM single dose, RXF 393 (renal cancer), read-out: growth inhibition percent (GI%)): > 100% | TGI (RXF 393; five-dose): 21.40 µM | GI50 (SW-620; Homo sapiens, SW-620, five-dose): 5.97 µM | CC50 (SW-620; Homo sapiens, SW-620, five-dose, read-out: LC50 (the source's name)): 48.7 µM | inhibition at 10 µM (SW-620; Homo sapiens, 10 μM single dose, SW-620 (colon cancer), read-out: growth inhibition percent (GI%)): > 100% | TGI (SW-620; five-dose): 19.30 µM | GI50 (MDA-MB-435; Homo sapiens, MDA-MB-435, five-dose): 16.8 µM | CC50 (MDA-MB-435; Homo sapiens, MDA-MB-435, five-dose, read-out: LC50 (the source's name)): 58.4 µM | inhibition at 10 µM (MDA-MB-435; Homo sapiens, 10 μM single dose, MDA-MB-435 (melanoma), read-out: growth inhibition percent (GI%)): > 100% | TGI (MDA-MB-435; five-dose): 31.30 µM | GI50 (KM12; Homo sapiens, KM12, five-dose): 18 µM | CC50 (KM12; Homo sapiens, KM12, five-dose, read-out: LC50 (the source's name)): 63 µM | inhibition at 10 µM (KM12; Homo sapiens, 10 μM single dose, KM12 (colon cancer), read-out: growth inhibition percent (GI%)): > 100% | TGI (KM12; five-dose): 33.60 µM | GI50 (MCF7; Homo sapiens, MCF7, five-dose): 6.43 µM | CC50 (MCF7; Homo sapiens, MCF7, five-dose, read-out: LC50 (the source's name)): 50.1 µM | inhibition at 10 µM (MCF7; Homo sapiens, 10 μM single dose, MCF7 (breast cancer), read-out: growth inhibition percent (GI%)): > 100% | TGI (MCF7; five-dose): 20.20 µM | GI% (SNB-75; 10 μM one-dose): 80.66% | inhibition at 10 µM (SNB-75; Homo sapiens, 10 μM single dose, SNB-75 (CNS cancer), read-out: growth inhibition percent (GI%)): 80.7% | GI50 (786–0; Homo sapiens, 786-0, five-dose): 13.8 µM | LC50 (concentration killing 50% of tumour cells) (786–0; Homo sapiens, 786-0, five-dose): 62.6 µM | inhibition at 10 µM (786–0; Homo sapiens, 10 μM single dose, 786–0 (renal cancer), read-out: growth inhibition percent (GI%)): > 100% | TGI (786–0; five-dose): 29.30 µM | GI50 (NCI-H522; Homo sapiens, NCI-H522, five-dose): 13.9 µM | CC50 (NCI-H522; Homo sapiens, NCI-H522, five-dose, read-out: LC50 (the source's name)): 64.3 µM | inhibition at 10 µM (NCI-H522; Homo sapiens, 10 μM single dose, NCI-H522 (non-small cell lung cancer), read-out: growth inhibition percent (GI%)): > 100% | TGI (NCI-H522; five-dose): 29.90 µM | GI50 (SNB-19; Homo sapiens, SNB-19, five-dose): 14.9 µM | CC50 (SNB-19; Homo sapiens, SNB-19, five-dose, read-out: LC50 (the source's name)): 58.1 µM | inhibition at 10 µM (SNB-19; Homo sapiens, 10 μM single dose, SNB-19 (CNS cancer), read-out: growth inhibition percent (GI%)): 50.4% | TGI (SNB-19; five-dose): 29.40 µM | GI50 (DU-145; Homo sapiens, DU-145, five-dose): 16.8 µM | CC50 (DU-145; Homo sapiens, DU-145, five-dose, read-out: LC50 (the source's name)): 58.1 µM | inhibition at 10 µM (DU-145; Homo sapiens, DU-145, read-out: growth inhibition percent (GI%)): > 100% | TGI (DU-145; five-dose): 31.30 µM
